What was measured:
Assay in all cases: Pre-emergent herbicidal activity (Table A)
Type in all cases: in vivo
Morningglory = conditions: Ipomoea, pre-emergence, Mogl, 11.2 kg/ha, 10-14 days, read-out: herbicidal rating (% inhibition)
Outline: (§1)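 Seeds or vegetative propagules were set on topsoil compacted to 0.95 to 1.27 cm below the pan rim, then covered with soil thoroughly mixed with a known amount of test compound in acetone or water carrier. Ratings follow a scale of percent inhibition per species.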

Downy Brome = conditions: Bromus tectorum, pre-emergence, Dobr, 11.2 kg/ha, 10-14 days, read-out: herbicidal rating (% inhibition)
Outline: as §1

Barnyardgrass = conditions: Echinochloa crus-galli, pre-emergence, Bygr, 11.2 kg/ha, 10-14 days, read-out: herbicidal rating (% inhibition)
Outline: as §1

Cocklebur = conditions: Xanthium strumarium, pre-emergence, Cobu, 11.2 kg/ha, 10-14 days, read-out: herbicidal rating (% inhibition)
Outline: as §1

Velvetleaf = conditions: Abutilon theophrasti, pre-emergence, Vele, 11.2 kg/ha, 10-14 days, read-out: herbicidal rating (% inhibition)
Outline: as §1

Yellow Nutsedge = conditions: Cyperus, pre-emergence, Yens, 11.2 kg/ha, 10-14 days, read-out: herbicidal rating (% inhibition)
Outline: as §1

Wild Buckwheat = conditions: Fallopia convolvulus, pre-emergence, Wibw, 11.2 kg/ha, 10-14 days, read-out: herbicidal rating (% inhibition)
Protocol: (§2) Tables A and B summarize results of tests conducted to determine the pre-emergent herbicidal activity of the compounds of this invention. The herbicidal ratings used in Tables A and B were assigned according to a scale based on the percent inhibition of each plant species. The herbicide rating symbols in Tables A and B are defined as follows: […]
(§3) One set of pre-emergent tests was conducted as follows:
(§4) Topsoil was placed in a pan and compacted to a depth of 0.95 to 1.27 cm. from the top of the pan. A predetermined number of seeds of each of several monocotyledonous and dicotyledonous annual plant species and/or vegetative propagules of various perennial plant species were placed on top of the soil. The soil required to level fill a pan after seeding or adding vegetative propagules was weighed into another pan. A known amount of the test compound dissolved or suspended in an organic solvent or water and applied in acetone or water as a carrier was thoroughly mixed with this cover soil, and the herbicide/soil mixture was used as a cover layer for the previously prepared pan. In Table A below the amounts of active ingredient were all equivalent to an application rate of 11.2 kilograms/hectare (kg/ha). After treatment, the pans were moved to a greenhouse bench where they were watered as needed to give adequate moisture for germination and growth.
(§5) Approximately 10-14 days (usually 11 days) after planting and treating, the plants were observed and the results recorded.
(§6) The plant species usually regarded as weeds which were utilized in one set of pre-emergent activity tests, the data for which are shown in Table A, are identified by letter headings printed diagonally above the columns according to the following legend: […]

Seedling Johnsongrass = conditions: Sorghum halepense, pre-emergence, Sejg, 11.2 kg/ha, 10-14 days, read-out: herbicidal rating (% inhibition)
Protocol: as §2, §3, §4, §5, §6

Indian Mustard = conditions: Brassica juncea, pre-emergence, Inmu, 11.2 kg/ha, 10-14 days, read-out: herbicidal rating (% inhibition)
Protocol: as §2, §3, §4, §5, §6

Annual Bluegrass = conditions: pre-emergence, Anbg, 11.2 kg/ha, 10-14 days, read-out: herbicidal rating (% inhibition)
Protocol: as §2, §3, §4, §5, §6

Row | Compound | inhibition at 11200 g/ha (Morningglory) | inhibition at 11200 g/ha (Downy Brome) | inhibition at 11200 g/ha (Barnyardgrass) | inhibition at 11200 g/ha (Cocklebur) | inhibition at 11200 g/ha (Velvetleaf) | inhibition at 11200 g/ha (Yellow Nutsedge) | inhibition at 11200 g/ha (Wild Buckwheat) | inhibition at 11200 g/ha (Seedling Johnsongrass) | inhibition at 11200 g/ha (Indian Mustard) | inhibition at 11200 g/ha (Annual Bluegrass)
1 | COC(=O)c1c(OC)nc(C(F)(F)F)c(C(=O)n2cc(C#N)cn2)c1CC(C)C [Compound 111, 3-pyridinecarboxylic acid, 5-[(4-cyano-1H-pyrazo1-1-yl)carbonyl]-2-methoxy-4-(2-methylpropyl)-6-(trifluoromethyl)-, methyl ester] | 75 to 100% | 50 to 74% | 75 to 100% | 0 to 24% | 75 to 100% | 0 to 24% | 75 to 100% | 75 to 100% | 75 to 100% | 75 to 100%
2 | COC(=O)c1c(OC)nc(C(F)(F)F)c(C(=O)OCC(F)(F)F)c1CC(C)C [Compound 112, 3,5-pyridinedicarboxylic acid, 2-methoxy-4-(2-methylpropyl)-6-(trifluoromethyl)-, 3-methyl 5-(2,2,2-trifluoroethyl) ester] | 50 to 74% | 75 to 100% | 75 to 100% | 0 to 24% | 75 to 100% | 0 to 24% | 75 to 100% | 75 to 100% | 75 to 100% | 75 to 100%
3 | COC(=O)c1c(OC)nc(C(F)(F)F)c(-c2cnco2)c1CC(C)C [Compound 114, 3-pyridinecarboxylic acid, 2-methoxy-4-(2-methylpropyl)-5-(5-oxazolyl)-6-(trifluoromethyl)-, methyl ester] | 50 to 74% | 75 to 100% | 75 to 100% | 0 to 24% | 75 to 100% | 25 to 49% | 75 to 100% | 75 to 100% | 75 to 100% | 75 to 100%
4 | COC(=O)c1c(OC)nc(C(F)(F)F)c(C=O)c1CC1CC1 [Compound 115, 3-pyridinecarboxylic acid, 4-(cyclopropylmethyl)-5-formy1-2-methoxy-6-(trifluoromethyl)-, methyl ester] | 50 to 74% | 75 to 100% | 75 to 100% | 0 to 24% | 50 to 74% | 25 to 49% | 50 to 74% | 75 to 100% | 75 to 100% | 75 to 100%
5 | COC(=O)c1c(OC)nc(C(F)(F)F)c(CO)c1CC1CC1 [Compound 117, 3-pyridinecarboxylic acid, 4-(cyclopropylmethyl)-5-(hydroxymethyl)-2-methoxy-6-(trifluoromethyl)-, methyl ester] | 0 to 24% | 0 to 24% | 75 to 100% | 0 to 24% | 25 to 49% | 0 to 24% | 50 to 74% | 75 to 100% | 50 to 74% | 75 to 100%
6 | COC(=O)c1c(OC)nc(C(F)(F)F)c(C2OCCO2)c1CC1CC1 [Compound 118, 3-pyridinecarboxylic acid, 4-(cyclopropylmethyl)-5-(1,3-dioxolan-2-yl)-2-methoxy-6-(trifluoromethyl)-, methyl ester] | 75 to 100% | 75 to 100% | 75 to 100% | 0 to 24% | 75 to 100% | 75 to 100% | 75 to 100% | 75 to 100% | 75 to 100% | 75 to 100%
7 | COC(=O)c1c(OC)nc(C(F)(F)F)c(C(=O)SC)c1CC1CC1 [Compound 119, 3-pyridinecarboxylic acid, 4-(cyclopropylmethyl)-2-methoxy-5-[(methylthio)carbonyl]-6-(trifluoromethyl)-, methyl ester] | 75 to 100% | 75 to 100% | 75 to 100% | 50 to 74% | 75 to 100% | 75 to 100% | 75 to 100% | 75 to 100% | 75 to 100% | 75 to 100%
8 | COC(=O)c1c(OC)nc(C(F)(F)F)c(N=C2CCCO2)c1CC(C)C [Compound 121, 3-pyridinecarboxylic acid, 5-[(dihydro-2(3H)-furanylidene)amino]-2-methoxy-4-(2-methylpropyl)-6-(trifluoromethyl)-, methyl ester] | 50 to 74% | 75 to 100% | 75 to 100% | 75 to 100% | 75 to 100% | 50 to 74% | 75 to 100% | 75 to 100% | 75 to 100% | 75 to 100%
9 | COC(=O)c1c(OC)nc(C(F)(F)F)c(C2OCCS2)c1CC(C)C (stereo not shown) [Compound 122, 3-pyridinecarboxylic acid, 2-methoxy-4-(2-methylpropyl)-5-(1,3-oxathiolan-2-yl)-6-(trifluoromethyl)-, methyl ester] | 75 to 100% | 75 to 100% | 75 to 100% | 0 to 24% | 75 to 100% | 50 to 74% | 75 to 100% | 75 to 100% | 75 to 100% | 75 to 100%
10 | COC(=O)c1c(OC)nc(C(F)(F)F)c(C2OCC(=O)O2)c1CC(C)C (stereo not shown) [Compound 123, 3-pyridinecarboxylic acid, 2-methoxy-4-(2-methylpropyl)-5-(4-oxo-1,3-dioxolan-2-yl)-6-(trifluoromethyl)-, methyl ester] | 25 to 49% | 75 to 100% | 75 to 100% | 0 to 24% | 25 to 49% | 0 to 24% | 75 to 100% | 75 to 100% | 75 to 100% | 75 to 100%
11 | CCOC=NNC(=O)c1c(C(F)(F)F)nc(OC)c(C(=O)OC)c1CC(C)C [Compound 124, 3,5-pyridinedicarboxylic acid, 2-methoxy-4-(2-methylpropyl)-6-(trifluoromethyl)-, 3-methyl ester, 5-(ethoxymethylene)hydrazide] | 0 to 24% | 0 to 24% | 0 to 24% | 0 to 24% | 0 to 24% | 0 to 24% | 0 to 24% | 0 to 24% | 0 to 24% | 0 to 24%
12 | COC(=O)c1c(OC)nc(C(F)(F)F)c(-c2nnco2)c1CC(C)C [Compound 125, 3-pyridinecarboxylic acid, 2-methoxy-4-(2-methylpropyl)-5-(1,3,4-oxadiazo1-2-yl)-6-(trifluoromethyl)-, methyl ester] | 75 to 100% | 75 to 100% | 75 to 100% | 0 to 24% | 75 to 100% | 0 to 24% | 75 to 100% | 75 to 100% | 75 to 100% | 75 to 100%
13 | COC(=O)c1c(OC)nc(C(F)(F)F)c(C2OCC[S+]2[O-])c1CC(C)C (stereo not shown) [Compound 126, 3-pyridinecarboxylic acid, 2-methoxy-4-(2-methylpropyl)-5-(1,3-oxathiolan-2-yl)-6-(trifluoromethyl)-, methyl ester, S-oxide] | 75 to 100% | 75 to 100% | 75 to 100% | 25 to 49% | 75 to 100% | 0 to 24% | 75 to 100% | 75 to 100% | 75 to 100% | 75 to 100%

From patent US5391540A, “Substituted pyridine compounds” (Rohm and Haas Company, priority 1993, dated 1995)
